Read-outs that look alike come from different tables or passages of the source.
Experiments:
NCIH 460 cells = assay: cells; settings: for GI50: read-out: NCIH460 GI50; for CC50: read-out: NCIH460 LC50
Description: (§1) Experimental drugs are screened for anti-cancer activity in three cell lines for their GI50, TGI and LC50 values (using five concentrations for each compound). The cell lines are maintained in DMEM containing 10% fetal bovine serum. 96 well micro titer plates are inoculated with cells in 100 μL for 24 h at 37° C., 5% CO2, 95% air and 100% relative humidity. 5000 HCT 116 cells/well, 5000 NCIH 460 cells/well and 5000 U251 cells/well are plated. A separate plate with these cell lines is also inoculated to determine cell viability before the addition of the compounds (T0) (See Table I).
(§2) Following 24-hour incubation, experimental drugs are added to the 96 well plates. Each plate contains one of the above cell lines and the following in triplicate: five different concentrations (0.01, 0.1, 1, 10 and 100 μM) of four different compounds, appropriate dilutions of a cytotoxic standard and control (untreated) wells. Compounds are dissolved in DMSO to make 20 mM stock solutions on the day of drug addition and frozen at −20° C. Serial dilutions of these 20 mM stock solutions are made in complete growth medium such that 100 μL of these drug solutions in medium, of final concentrations equaling 0.01, 0.1, 1, 10 and 100 μM can be added to the cells in triplicate. […] (See Table I).
(§3) For T0 measurement, 24 hours after seeding the cells, 10 μL of 3-(4,5-Dimethyl-2-thiazolyl)-2,5-diphenyl-2H-tetrazolium (MTT) solution per well is added and incubation carried out for 3 hours at 37° C., 5% CO2, 95% air and 100% relative humidity, protected from light. Cells incubated with compounds for 48 hours are treated similarly except with the addition of 20 μL MTT solution per well and a subsequent incubation under the same conditions. After 3 hours of MTT incubation, well contents are aspirated carefully followed by addition of 150 μL DMSO per well. Plates are agitated to ensure solution of the formazan crystals in DMSO and absorbance read at 570 nm. (See Table I).
(§4) Percent growth is calculated for each compound's concentration relative to the control and zero measurement wells (T0; viability right before compound addition).
(§5) If a test well's O.D. value is lower than the T0 measurement for that cell line, then, % Growth=(test−zero)/zero×100

MDAMB231/U251 [1] = assay: cells; settings: 48 h; for GI50: read-out: MDAMB231/U251 GI50
Description: as §1, §2, §3, §4, §5

HCT 116 cells = assay: cells; settings: for GI50: read-out: HCT116 GI50; for CC50: read-out: HCT116 LC50
Description: as §1, §2, §3, §4, §5

MDAMB231/U251 [2] = assay: cells; settings: 48 h, read-out: MDAMB231/U251 LC50
[3] = system: HDAC activity (Mouse Liver Extract); assay: Histone Deacetylase (HDAC) Inhibition Assay using Boc-Lys (Ac)-AMC Substrate; type: biochemical; settings: mouse liver enzyme; for HDAC Inhibition 1 μM: inhibitor at 1 μM; for HDAC Inhibition 1 μM / HDAC Inhibition 10 μM: in % (unit assumed); for HDAC Inhibition 10 μM: inhibitor at 10 μM
Description: Histone Deacetylase (HDAC) Inhibition Assay using Boc-Lys (Ac)-AMC Substrate: Inhibition of HDAC has been implicated to modulate transcription and to induce apoptosis or differentiation in cancer cells. The fluorometric assay provides a fast and fluorescence based method that eliminates radioactivity, extractions or chromatography, as used in traditional assays. The assay based on two steps. First, the HDAC fluorometric substrate, which comprises an acetylated lysine side chain, is incubated with a sample containing HDAC activity (Mouse Liver Extract). Deacetylation of the substrate sensitizes the substrate, in the second step; treatment with the Trypsin stop solution produces a fluorophore that can be easily analyzed using fluorescence plate reader.
Assay was done in 96 well black microplate and total volume of the assay is 100 ul. Mouse liver enzyme is diluted 1:6 with HDAC buffer. Enzyme cocktail made of 10 ul of diluted enzyme and 30 ul of HDAC buffer. 40 ul of enzyme cocktail dispensed into each well. 10 ul of different concentrations of inhibitor added in to each well, except enzyme control well. Preincubated the plate at 30° C. for 5 minutes. The HDAC reaction is started by adding 50 ul of HDAC substrate (Boc-Lys (Ac)-AMC Substrate) solution. Incubated the plate at 30° C. for 30 minutes. Adding 100 ul of Trypsin stop solution stops the reaction. The plate is incubated again at 30° C. for 20-30 minutes. The release of AMC is monitored by measuring the fluorescence at excitation wavelength of 365 or 360 nm and emission wavelength of 440 or 460 nm. Buffer and substrate alone kept for blank subtraction. (Dennis Wegener et al, Anal. Biochem, 321, 2003, 202-208).

[4] = system: NCIH460, HCT116, MDAMB231/U251; assay: Anti-cancer screen, mean GI50 over the cell lines; type: cell-based; settings: mean over the three cell lines; no unit in table
Description: as §1, §2, §3
Percent growth is calculated for each compound's concentration relative to the control and zero measurement wells (T0; viability right before compound addition). […]

[5] = NCIH460, MTT, 48 h, tested at 0.01-100 μM, no unit in table
[6] = MDAMB231/U251, MTT, tested at 0.01-100 μM, no unit in table
[7] = HCT116, MTT, 48 h, tested at 0.01-100 μM, no unit in table

Row | SMILES | GI50 (NCIH 460 cells; Homo sapiens, NCI-H460, 48 h) [µM] | CC50 (NCIH 460 cells; Homo sapiens, NCI-H460, 48 h) [µM] | GI50 (MDAMB231/U251 [1]) [µM] | GI50 (HCT 116 cells; Homo sapiens, HCT-116, 48 h) [µM] | CC50 (HCT 116 cells; Homo sapiens, HCT-116, 48 h) [µM] | CC50 (MDAMB231/U251 [2]) [µM] | HDAC Inhibition 1 μM [3] | HDAC Inhibition 10 μM [3] | IC50 [3] [µM] | GI50 [4] [µM] | NCIH460 TGI (NCIH 460 cells; [5]) | GI50 (NCIH 460 cells; [5]) [µM] | CC50 (NCIH 460 cells; [5]) [µM] | MDAMB231/U251 TGI (MDAMB231/U251 [1]; [6]) | GI50 (MDAMB231/U251 [1]; [6]) [µM] | CC50 (MDAMB231/U251 [1]; read-out: MDAMB231/U251 LC50, MDAMB231/U251, MTT, tested at 0.01-100 μM, no unit in table) [µM] | HCT116 TGI (HCT 116 cells; [7]) | GI50 (HCT 116 cells; [7]) [µM] | CC50 (HCT 116 cells; [7]) [µM]
1 | Cc1ncsc1/C=C(\C(=O)NCCCCCC(=O)NO)c1ccc(Br)cc1 [Example 23, (2Z)-3-(4-Methylthiazol-5-yl)-2-(4-bromophenyl)-N-[6-(hydroxyamino)-6-oxohexyl]acrylamide] | 0.8 | > 100 | 1 | 6 | > 100 | 90 | 42.7 | 81.07 | 1.8 | 2.6 | – | – | – | – | – | – | – | – | –
2 | COc1cc(/C=C(\C(=O)NCCCCCC(=O)Nc2cccc(O)c2)c2ccc(F)cc2)cc(OC)c1 [Example 3] | 50 | > 100 | 73 | 40 | > 100 | > 100 | −6.41 | −6.45 | – | 54.3 | – | – | – | – | – | – | – | – | –
3 | COc1cc(/C=C(\C(=O)NCCCCCC(=O)NO)c2ccc([N+](=O)[O-])cc2)cc(OC)c1 [Example 9, (2Z)-3-(3,5-Dimethoxyphenyl)-2-(4-nitrophenyl)-N-[6-(hydroxyamino)-6-oxohexyl]acrylamide] | 45 | 100 | 28 | 20 | 95 | 90 | 65.5 | 98.28 | 0.7 | 31 | – | – | – | – | – | – | – | – | –
4 | COc1cc(/C=C(\C(=O)NCCCCCC(=O)NO)c2ccc(F)cc2)cc(OC)c1 [Example 1, (2Z)-3-(3,5-Dimethoxyphenyl)-2-(4-fluorophenyl)-N-[6-(hydroxyamino)-6-oxohexyl]acrylamide] | > 100 | > 100 | 0.1 | 5 | 70 | 75 | 53.76 | 66.42 | 0.22 | 2.6 | – | – | – | – | – | – | – | – | –
5 | COc1ccc(/C(=C/c2c(F)ccc(F)c2F)C(=O)NCCCCCC(=O)NO)cc1 [Example 40, (2Z)-3-(2,3,6-Trifluorophenyl)-2-(4-methoxyphenyl)-N-[6-(hydroxyamino)-6-oxohexyl]acrylamide] | 3 | > 100 | 1 | 5.8 | > 100 | 80 | 79.97 | 96.16 | – | 3.27 | – | – | – | – | – | – | – | – | –
6 | CSc1ccc(/C=C(\C(=O)NCCCCCC(=O)NO)c2ccc(C(F)(F)F)cc2)cc1 [Example 38, (2Z)-3-(4-Thiomethylphenyl)-2-(4-trifluoromethylphenyl)-N-[6-(hydroxyamino)-6-oxohexyl]acrylamide] | 6 | 64 | 0.07 | 5.5 | 65 | 60 | 59.26 | 97.74 | – | 3.9 | – | – | – | – | – | – | – | – | –
7 | COc1ccc(/C(=C/c2cccc(Cl)c2)C(=O)NCCCCCC(=O)NO)cc1 [Example 28, (2Z)-3-(3-Chlorophenyl)-2-(4-methoxyphenyl)-N-[6-(hydroxyamino)-6-oxohexyl]acrylamide] | 9 | 82 | 4 | 5 | 45 | 100 | 70.82 | 90.20 | 0.44 | 6 | – | – | – | – | – | – | – | – | –
8 | CSc1ccc(/C=C(\C(=O)NCCCCCC(=O)NO)c2ccc([N+](=O)[O-])cc2)cc1 [Example 41, (2Z)-3-(4-Thiomethylphenyl)-2-(4-nitrophenyl)-N-[6-(hydroxyamino)-6-oxohexyl]acrylamide] | 15 | 94 | 9 | 6 | 90 | 90 | 68.69 | 92.83 | – | 10 | – | – | – | – | – | – | – | – | –
9 | CSc1ccc(/C=C(\C(=O)NCCCCCC(=O)NOCc2ccccc2)c2ccc(F)cc2)cc1 [Example 51, (2Z)-3-(4-Thiomethylphenyl)-2-(4-fluorophenyl)-N-[6-(O-benzyl hydroxyamino)-6-oxohexyl]acrylamide] | – | – | – | – | – | – | – | – | – | 16.5 | 80 | 30 | > 100 | 35 | 9.6 | 86 | 65 | 10 | 84
10 | Cc1cc(/C=C(\C(=O)NCCCCCC(=O)NO)c2ccc(F)cc2)ccc1F [Example 45, (2Z)-3-(4-Fluoro-3-methylphenyl)-2-(4-fluorophenyl)-N-[6-(hydroxyamino)-6-oxohexyl]acrylamide] | 16 | 89 | 5 | 6.8 | 73 | > 100 | – | – | – | 9.3 | – | – | – | – | – | – | – | – | –
11 | COc1ccc(/C=C(\C(=O)NCCCCCC(=O)NO)c2ccccc2)cc1 [Example 29, (2Z)-3-(4-Methoxyphenyl)-2-(phenyl)-N-[6-(hydroxyamino)-6-oxohexyl]acrylamide] | 28 | 89 | 6 | 5 | 78 | 90 | – | – | – | 13 | – | – | – | – | – | – | – | – | –
12 | O=C(CCCCCNC(=O)/C(=C\c1ccc(F)c(F)c1)c1ccc(F)cc1)Nc1nccs1 [Example 36] | 2 | > 100 | 0.2 | > 100 | > 100 | > 100 | – | – | – | 1.1 | – | – | – | – | – | – | – | – | –
13 | O=C(CCCCCNC(=O)/C(=C\c1cc(F)cc(F)c1F)c1ccc([N+](=O)[O-])cc1)NO [Example 27, (2Z)-3-(2,3,5-Trifluorophenyl)-2-(4-nitrophenyl)-N-[6-(hydroxyamino)-6-oxohexyl]acrylamide] | 30 | 96 | 7.5 | 7 | > 100 | 82 | – | – | – | 14.8 | – | – | – | – | – | – | – | – | –
